Data as given in patent US4902799A, “Bicyclic alkoxy- and alkylthio-substituted aminoalcohols” (Maggioni-Winthrop S.p.A., priority 1985, dated 1990).
Where two headings read alike, the source gives them in different places. Values belong to the compound of their own block, whether it stands above or below them.

Columns and labels:
male mice = assay: Anti-hypoxic activity (gasping time after decapitation); type: in vivo; settings: Mus musculus, po, 100 mg/kg/p.o., read-out: Gasping time, % diff. from control
Normolipemic rats = assay: Hypolipemic activity in normolipemic rats; type: in vivo, rat (Sprague Dawley Nos male rats); settings: for hypolipemic activity (in words): oral
toxic adrenaline doses = assay: animal or person; type: in vivo, mouse (male mice CrI:CD 1(CR) BR); settings: Mus musculus, po, 24 h, read-out: PD50 (50% protective dose)
platelet aggregation = assay: Collagen-induced platelet aggregation ex vivo; type: in vivo, rat
[1] = molecular target: T1, alpha2-adrenergic receptors (Rattus norvegicus, UniProt P22909); settings: (a) Qian et al. 1983 for Tibalosine; (b) Van Zwieten et al. 1985 for Urapidil; cited from earlier work
T1 construct: from tissue; host or cells: rat brain membranes
T1 sequence (P22909 1-465): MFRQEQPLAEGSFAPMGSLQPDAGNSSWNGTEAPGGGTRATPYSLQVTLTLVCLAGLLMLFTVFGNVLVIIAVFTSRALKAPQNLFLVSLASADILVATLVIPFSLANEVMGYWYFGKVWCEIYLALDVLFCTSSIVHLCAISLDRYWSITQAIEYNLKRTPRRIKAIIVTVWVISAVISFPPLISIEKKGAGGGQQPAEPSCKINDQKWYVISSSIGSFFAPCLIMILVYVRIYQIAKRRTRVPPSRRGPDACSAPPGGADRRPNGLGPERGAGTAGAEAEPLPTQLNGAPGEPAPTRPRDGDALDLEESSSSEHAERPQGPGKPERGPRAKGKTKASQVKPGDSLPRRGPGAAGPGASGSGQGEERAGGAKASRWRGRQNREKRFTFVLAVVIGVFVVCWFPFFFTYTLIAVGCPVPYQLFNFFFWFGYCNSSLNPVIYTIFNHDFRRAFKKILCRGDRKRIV

[2] = test system: SH rats (spontaneously hypertensive rats); assay: Anti-hypertensive activity in spontaneously hypertensive rats, tail artery plethysmography; type: in vivo, rat; settings: SHR
Protocol: The anti-hypertensive activity was tested on groups of 5 SH rats (spontaneously hypertensive rats) weighing 200±10 g, fasting for 18 hrs and treated orally with the invention compounds suspended in 2.5% gum arabic.
Changes in blood pressure (mm Hg) before (T=0) and after treatment (2, 4 and 6 hrs) were measured according to the method of tail artery plethysmography reported in "Spontaneously hypertensive rats (SHR): Guidlines for breeding, care and use", SHR Conference, 1976, page 11.
The arterial pressure before the treatment was 210±10 mmHg.

[3] = molecular target: alpha1-adrenergic receptors; settings: (a) Qian et al. 1983 for Tibalosine; (b) Van Zwieten et al. 1985 for Urapidil; cited from earlier work
[4] = 0.15 mM/kg oral, blood 1 hr after treatment, collagen 2-4 mcg/ml

SMILES: COc1ccc2cc(C(O)C(C)N3CCN(c4ccccc4OC)CC3)ccc2c1 (stereo not drawn) [MG 38098, threo-2-[4-(2-Methoxyphenyl)-1-piperazinyl]-1-(6-methoxy-2-naphthyl)-propanol]
change in vivo at 100 mg/kg (male mice; pretreatment 90 min): 41.1%

Liver Weight, % different from control (Normolipemic rats; 0.023 mM/kg/p.o. × 4 days): +5.5%
Liver Weight, % different from control (Normolipemic rats; 0.046 mM/kg/p.o. × 4 days): +8.0%
Liver Weight, % different from control (Normolipemic rats; 0.185 mM/kg/p.o. × 4 days): +4.8%
SMILES: COc1ccc2cc(C(O)C(C)N3CCC(NC(=O)c4ccccc4)CC3)ccc2c1 (centres unmarked) [MG 38105, 2-(4-Benzamido-1-piperidinyl)-1-(6-methoxy-2-naphthyl)-propanol]
CHOL, % different from control (Normolipemic rats; 0.023 mM/kg/p.o. × 4 days): -35.7%
CHOL-HDL, % different from control (Normolipemic rats; 0.023 mM/kg/p.o. × 4 days): -13.3%
TG, % different from control (Normolipemic rats; 0.023 mM/kg/p.o. × 4 days): -36.2%
CHOL, % different from control (Normolipemic rats; 0.046 mM/kg/p.o. × 4 days): -45.8%
CHOL-HDL, % different from control (Normolipemic rats; 0.046 mM/kg/p.o. × 4 days): +1.3%
TG, % different from control (Normolipemic rats; 0.046 mM/kg/p.o. × 4 days): -63.8%
CHOL, % different from control (Normolipemic rats; 0.185 mM/kg/p.o. × 4 days): -96.6%
CHOL-HDL, % different from control (Normolipemic rats; 0.185 mM/kg/p.o. × 4 days): +3.9%
TG, % different from control (Normolipemic rats; 0.185 mM/kg/p.o. × 4 days): -70.6%
hypolipemic activity (in words) (Normolipemic rats): good activity at very low doses

Liver Weight, % different from control (Normolipemic rats; 0.023 mM/kg/p.o. × 4 days): -1.6%
Liver Weight, % different from control (Normolipemic rats; 0.046 mM/kg/p.o. × 4 days): +8.6%
Liver Weight, % different from control (Normolipemic rats; 0.185 mM/kg/p.o. × 4 days): +3.3%
SMILES: COc1ccc2cc(C(O)C(C)N3CCC(NC(=O)c4ccccc4)CC3)ccc2c1 (centres unmarked) [MG 38127, 2-(4-Benzamido-1-piperidinyl)-1-(6-methoxy-2-naphthyl)-propanol]
CHOL, % different from control (Normolipemic rats; 0.023 mM/kg/p.o. × 4 days): -30.2%
CHOL-HDL, % different from control (Normolipemic rats; 0.023 mM/kg/p.o. × 4 days): +7.6%
TG, % different from control (Normolipemic rats; 0.023 mM/kg/p.o. × 4 days): -41.4%
CHOL, % different from control (Normolipemic rats; 0.046 mM/kg/p.o. × 4 days): -51.2%
CHOL-HDL, % different from control (Normolipemic rats; 0.046 mM/kg/p.o. × 4 days): -1.8%
TG, % different from control (Normolipemic rats; 0.046 mM/kg/p.o. × 4 days): -66.3%
CHOL, % different from control (Normolipemic rats; 0.185 mM/kg/p.o. × 4 days): -59.1%
CHOL-HDL, % different from control (Normolipemic rats; 0.185 mM/kg/p.o. × 4 days): -19.8%
TG, % different from control (Normolipemic rats; 0.185 mM/kg/p.o. × 4 days): -81.7%
hypolipemic activity (in words) (Normolipemic rats): good activity at very low doses

SMILES: Cc1ccc(N(CC2=NCCN2)c2cccc(O)c2)cc1 [Phentolamine]
ED50 (toxic adrenaline doses): 8 mg/kg

SMILES: COc1cc2nc(N3CCN(C(=O)c4ccco4)CC3)nc(N)c2cc1OC [Prazosin]
ED50 (toxic adrenaline doses): 0.7 mg/kg

Liver Weight, % different from control (Normolipemic rats; 0.205 mM/kg/p.o. × 8 days): +4.0%
Liver Weight, % different from control (Normolipemic rats; 0.82 mM/kg/p.o. × 4 days): ~ 0%
SMILES: CC(C)(Sc1cc(C(C)(C)C)c(O)c(C(C)(C)C)c1)Sc1cc(C(C)(C)C)c(O)c(C(C)(C)C)c1 [Probucol, reference compound]
CHOL, % different from control (Normolipemic rats; 0.205 mM/kg/p.o. × 8 days): -25.0%
CHOL-HDL, % different from control (Normolipemic rats; 0.205 mM/kg/p.o. × 8 days): -26%
TG, % different from control (Normolipemic rats; 0.205 mM/kg/p.o. × 8 days): -28.0%
CHOL, % different from control (Normolipemic rats; 0.82 mM/kg/p.o. × 4 days): ~ 0%
CHOL-HDL, % different from control (Normolipemic rats; 0.82 mM/kg/p.o. × 4 days): +18.5%
TG, % different from control (Normolipemic rats; 0.82 mM/kg/p.o. × 4 days): ~ 0%
hypolipemic activity (in words) (Normolipemic rats): moderate and is noted only after prolonged treatment (8 days)

SMILES: O=C1C(CC[S+]([O-])c2ccccc2)C(=O)N(c2ccccc2)N1c1ccccc1 (centres unmarked) [Sulfinpyrazone, reference compound]
% Inhibition, Aggregation rate (platelet aggregation; rat, in vivo, po): 89.0%
% Inhibition, Maximum aggregation (platelet aggregation; rat, in vivo, po): 92.5%

SMILES: CCCCCCCCNC(C)C(O)c1ccc(SC(C)C)cc1 (centres unmarked) [Suloctidil, reference compound]
change in vivo at 100 mg/kg (male mice; pretreatment 45 min): 27.5%
change in vivo at 100 mg/kg (male mice; pretreatment 90 min): 11.7%
% Inhibition, Aggregation rate (platelet aggregation; [4]): 57.5%
% Inhibition, Maximum aggregation (platelet aggregation; [4]): 69.0%

SMILES: CC(NCCCCc1ccccc1)C(O)c1ccc2c(c1)CCS2 (centres unmarked) [Tibalosine]
IC50 [1]: 1000 µM
Max. changes in systolic pressure ([2]; 1 mg/kg p.o.): ~ 0 mmHg
Max. changes in systolic pressure ([2]; 5 mg/kg p.o.): -13.2 mmHg
Max. changes in systolic pressure ([2]; 15 mg/kg p.o.): -67 mmHg
IC50 [3]: 0.4 µM

SMILES: Clc1ccccc1CN1CCc2sccc2C1 [Ticlopidine, reference compound]
% Inhibition, Aggregation rate (platelet aggregation; [4]): 56.0%
% Inhibition, Maximum aggregation (platelet aggregation; [4]): 70.0%

SMILES: COc1ccccc1N1CCN(CCCNc2cc(=O)n(C)c(=O)n2C)CC1 [Urapidil]
IC50 [1]: 14 µM
Max. changes in systolic pressure ([2]; 1 mg/kg p.o.): -16 mmHg
Max. changes in systolic pressure ([2]; 5 mg/kg p.o.): -47 mmHg
Max. changes in systolic pressure ([2]; 15 mg/kg p.o.): -72.4 mmHg
IC50 [3]: 0.8 µM
